Laboratory results: the supplement of paper PMC11451515

How the values were obtained:
Conditions in all cases: 48 h
P12-Ichikawa [1] = test: AUC of viability dose-response curve (% viability x log10 dose units); higher = less sensitive
Procedure, shortened: (§1)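 Library compounds in DMSO were applied for 48 h at 37°C at 11 threefold doses (47 μM to 0.79 nM) to medium-adapted leukemia cells in 1536-well plates holding 500 or 1000 cells/well. Luminescence from CellTiter-Glo One was normalised plate by plate against DMSO and cell-free wells. Area under the curve came from trapezoidal integration of a log-logistic fit, after scaling curves that rose above full viability and discarding those that failed quality control. The fit had four parameters and used log10 doses.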

SEM cells [2] = test: as above
Procedure, shortened: as §1

NOMO1 [3] = test: as above
Procedure, shortened: as §1

P12-Ichikawa [4] = test: cell viability relative to DMSO control; higher = less cytotoxic
Procedure, shortened: (§2)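 Library compounds in DMSO were pin-dosed into 1536-well plates (5 μl) holding NOMO1 or SEM (500 cells/well) or P12-Ichikawa (1000 cells/well) leukemia cells, across an 11-point threefold series of 47 μM to 0.79 nM. Each cell line had been adapted for at least four passages in each medium. CellTiter-Glo One luminescence was read after 48 h at 37°C. Viability is the per-plate percentage relative to DMSO wells, with cell-free wells as background.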

SEM cells [5] = test: as above
Procedure, shortened: as §2

NOMO1 [6] = test: as above
Procedure, shortened: as §2

N[S+]([O-])(=O)C1=C(Cl)C=C2\N=C/N[S+]([O-])(=O)C2=C1
AUC of viability dose-response curve
Conditions	NOMO1 [3]	P12-Ichikawa [1]	SEM cells [2]
HPLM + 10% dialyzed FBS	465	459	380
RPMI 5 mM glucose + 10% FBS	470	456	426
RPMI 5 mM glucose + 10% dialyzed FBS	475	468	418

cell viability [%]
Conditions	NOMO1 [6]	P12-Ichikawa [4]	SEM cells [5]
HPLM + 10% dialyzed FBS, 0.000781 µM	109	101	91.1
HPLM + 10% dialyzed FBS, 0.00234 µM	109	100	96.5
HPLM + 10% dialyzed FBS, 0.00702 µM	119	102	111
HPLM + 10% dialyzed FBS, 0.0211 µM	122	97.5	99
HPLM + 10% dialyzed FBS, 0.0632 µM	114	106	91.2
HPLM + 10% dialyzed FBS, 0.19 µM	121	108	59.6
HPLM + 10% dialyzed FBS, 0.569 µM	118	108	123
HPLM + 10% dialyzed FBS, 1.71 µM	119	119	105
HPLM + 10% dialyzed FBS, 5.12 µM	109	110	114
HPLM + 10% dialyzed FBS, 15.4 µM	116	106	148
HPLM + 10% dialyzed FBS, 46.1 µM	124	109	122
RPMI 5 mM glucose + 10% FBS, 0.000781 µM	94.2	97.3	101
RPMI 5 mM glucose + 10% FBS, 0.00234 µM	100	106	104
RPMI 5 mM glucose + 10% FBS, 0.00702 µM	109	107	94.3
RPMI 5 mM glucose + 10% FBS, 0.0211 µM	100	113	78.1
RPMI 5 mM glucose + 10% FBS, 0.0632 µM	112	117	92.5
RPMI 5 mM glucose + 10% FBS, 0.19 µM	105	114	45.3
RPMI 5 mM glucose + 10% FBS, 0.569 µM	112	112	122
RPMI 5 mM glucose + 10% FBS, 1.71 µM	107	122	119
RPMI 5 mM glucose + 10% FBS, 5.12 µM	114	115	104
RPMI 5 mM glucose + 10% FBS, 15.4 µM	99.5	120	107
RPMI 5 mM glucose + 10% FBS, 46.1 µM	101	122	123
RPMI 5 mM glucose + 10% dialyzed FBS, 0.000781 µM	101	101	109
RPMI 5 mM glucose + 10% dialyzed FBS, 0.00234 µM	105	96.2	98.7
RPMI 5 mM glucose + 10% dialyzed FBS, 0.00702 µM	106	111	103
RPMI 5 mM glucose + 10% dialyzed FBS, 0.0211 µM	112	115	80.2
RPMI 5 mM glucose + 10% dialyzed FBS, 0.0632 µM	112	114	101
RPMI 5 mM glucose + 10% dialyzed FBS, 0.19 µM	108	110	56.3
RPMI 5 mM glucose + 10% dialyzed FBS, 0.569 µM	102	114	134
RPMI 5 mM glucose + 10% dialyzed FBS, 1.71 µM	105	100	109
RPMI 5 mM glucose + 10% dialyzed FBS, 5.12 µM	112	115	109
RPMI 5 mM glucose + 10% dialyzed FBS, 15.4 µM	105	115	123
RPMI 5 mM glucose + 10% dialyzed FBS, 46.1 µM	105	109	133

CCOC(=O)N1CCN(/[N+]([O-])=N/Oc2ccc([N+](=O)[O-])cc2C#N)CC1
AUC of viability dose-response curve
Conditions	NOMO1 [3]	P12-Ichikawa [1]	SEM cells [2]
HPLM + 10% dialyzed FBS	390	328	331
RPMI 5 mM glucose + 10% FBS	383	324	327
RPMI 5 mM glucose + 10% dialyzed FBS	382	328	331

cell viability [%]
Conditions	NOMO1 [6]	P12-Ichikawa [4]	SEM cells [5]
HPLM + 10% dialyzed FBS, 0.000781 µM	118	97	85
HPLM + 10% dialyzed FBS, 0.00234 µM	99.3	106	88.8
HPLM + 10% dialyzed FBS, 0.00702 µM	109	108	86.5
HPLM + 10% dialyzed FBS, 0.0211 µM	110	107	91.4
HPLM + 10% dialyzed FBS, 0.0632 µM	135	106	120
HPLM + 10% dialyzed FBS, 0.19 µM	114	115	106
HPLM + 10% dialyzed FBS, 0.569 µM	117	113	109
HPLM + 10% dialyzed FBS, 1.71 µM	97.1	15.9	25.2
HPLM + 10% dialyzed FBS, 5.12 µM	39.5	9.82	15.3
HPLM + 10% dialyzed FBS, 15.4 µM	39.6	9.87	13.6
HPLM + 10% dialyzed FBS, 46.1 µM	36.1	9.31	9.4
RPMI 5 mM glucose + 10% FBS, 0.000781 µM	98.4	110	104
RPMI 5 mM glucose + 10% FBS, 0.00234 µM	97.4	115	108
RPMI 5 mM glucose + 10% FBS, 0.00702 µM	114	117	106
RPMI 5 mM glucose + 10% FBS, 0.0211 µM	105	110	109
RPMI 5 mM glucose + 10% FBS, 0.0632 µM	102	118	110
RPMI 5 mM glucose + 10% FBS, 0.19 µM	105	115	125
RPMI 5 mM glucose + 10% FBS, 0.569 µM	122	119	114
RPMI 5 mM glucose + 10% FBS, 1.71 µM	120	12.1	16
RPMI 5 mM glucose + 10% FBS, 5.12 µM	24.5	9.8	10.6
RPMI 5 mM glucose + 10% FBS, 15.4 µM	24.6	8.38	10.3
RPMI 5 mM glucose + 10% FBS, 46.1 µM	18.2	7.09	7.12
RPMI 5 mM glucose + 10% dialyzed FBS, 0.000781 µM	92.8	103	106
RPMI 5 mM glucose + 10% dialyzed FBS, 0.00234 µM	106	101	92.3
RPMI 5 mM glucose + 10% dialyzed FBS, 0.00702 µM	129	105	108
RPMI 5 mM glucose + 10% dialyzed FBS, 0.0211 µM	111	111	107
RPMI 5 mM glucose + 10% dialyzed FBS, 0.0632 µM	126	113	114
RPMI 5 mM glucose + 10% dialyzed FBS, 0.19 µM	115	108	117
RPMI 5 mM glucose + 10% dialyzed FBS, 0.569 µM	118	108	104
RPMI 5 mM glucose + 10% dialyzed FBS, 1.71 µM	108	16.4	22.4
RPMI 5 mM glucose + 10% dialyzed FBS, 5.12 µM	30.8	10.6	12.1
RPMI 5 mM glucose + 10% dialyzed FBS, 15.4 µM	24.6	9.71	12.2
RPMI 5 mM glucose + 10% dialyzed FBS, 46.1 µM	18.3	9.91	9.24
